Earlier results, collected in patent publication US20170016004A1, “DDX5 AND ASSOCIATED NON-CODING RNAs AND MODULATION OF TH17 EFFECTOR FUNCTION” (priority 2015, published 2017).

Tested on: ileal and colonic SMAD7
Settings: oral

mongersen
treatment of Crohn's Disease: used successfully
